Results: patent publication US10780090B2, “Heteroaryl compounds useful as inhibitors of SUMO activating enzyme” (Millennium Pharmaceuticals, Inc., priority 2014, dated 2020)

Molecular target: recombinant human SAE enzyme (Homo sapiens (Human), UniProt Q9UBT2)
Test: SAE HTRF enzyme assay
Type: biochemical
Details: for inhibition at 0.111 µM: read-out: Percent Inhibition
In short: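 Human SAE (0.11 nM) with 0.5 μM ATP, 0.125 μM Sumo-Flag and 0.01 μM Ubc9-GST in HEPES pH 7.5, 5 mM MgCl2, 250 μM GSH; 105 min at 24 °C. Stopped with EDTA; HTRF read after 2 h with Eu-anti-Flag and APC-anti-GST. Percent inhibition or IC50 reported.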

[1] = SAE inhibition at compound concentration 0.111 μM
[2] = SAE inhibition, class symbols, legend in nM

Chain of recombinant human SAE enzyme (Q9UBT2 whole entry): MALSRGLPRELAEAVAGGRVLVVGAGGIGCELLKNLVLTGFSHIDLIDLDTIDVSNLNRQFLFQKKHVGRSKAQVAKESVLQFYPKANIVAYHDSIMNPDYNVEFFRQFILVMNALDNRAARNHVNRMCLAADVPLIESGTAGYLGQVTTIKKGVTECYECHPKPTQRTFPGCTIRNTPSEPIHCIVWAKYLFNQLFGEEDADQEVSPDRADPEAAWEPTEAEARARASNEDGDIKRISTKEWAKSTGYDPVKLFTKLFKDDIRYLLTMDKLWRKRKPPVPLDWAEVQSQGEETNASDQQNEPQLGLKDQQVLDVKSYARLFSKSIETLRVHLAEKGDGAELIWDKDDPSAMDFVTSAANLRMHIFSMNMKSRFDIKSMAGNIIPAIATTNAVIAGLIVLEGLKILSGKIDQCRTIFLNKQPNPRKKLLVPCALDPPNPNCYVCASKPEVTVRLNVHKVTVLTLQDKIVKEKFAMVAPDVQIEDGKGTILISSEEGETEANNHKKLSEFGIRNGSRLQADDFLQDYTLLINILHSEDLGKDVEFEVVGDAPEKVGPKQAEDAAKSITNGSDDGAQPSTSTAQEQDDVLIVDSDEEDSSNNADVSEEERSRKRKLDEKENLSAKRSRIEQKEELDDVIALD
Chain of recombinant human SAE enzyme (Q9UBE0 whole entry partner): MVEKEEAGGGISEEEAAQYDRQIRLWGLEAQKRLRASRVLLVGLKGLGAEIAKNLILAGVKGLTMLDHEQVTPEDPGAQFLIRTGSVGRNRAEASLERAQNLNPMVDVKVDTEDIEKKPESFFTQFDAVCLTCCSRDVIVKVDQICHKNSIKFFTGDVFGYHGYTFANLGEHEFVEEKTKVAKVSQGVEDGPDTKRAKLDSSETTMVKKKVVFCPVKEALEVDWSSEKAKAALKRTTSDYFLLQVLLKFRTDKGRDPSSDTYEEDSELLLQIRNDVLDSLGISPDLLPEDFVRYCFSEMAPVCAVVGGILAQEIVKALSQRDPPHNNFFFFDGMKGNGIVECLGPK

`Cc1sc(C(=O)c2cncnc2N[C@@H]2C[C@H](COS(N)(=O)=O)[C@@H](O)C2)cc1[C@@H]1OCCc2ccsc21` (single isomer, unassigned) [I-269b, [(1R,2S,4R)-4-{[5-({4-[(7S)-4,7-dihydro-5H-thieno[2,3-c]pyran-7-yl]-5-methyl-2-thienyl}carbonyl)pyrimidin-4-yl]amino}-2-hydroxycyclopentyl]methyl sulfamate or [(1R,2S,4R)-4-{[5-({4-[(7R)-4,7-dihydro-5H-thieno[2,3-c]pyran-7-yl]-5-methyl-2-thienyl}carbonyl)pyrimidin-4-yl]amino}-2-hydroxycyclopentyl]methyl sulfamate] was tested, and the “Percent Inhibition” value (Concentration 0.111 μM) was 95 and the IC50 (class symbols A/B/C) was 10 to 100 nM.
For `NS(=O)(=O)OC[C@H]1C[C@@H](Nc2ncncc2C(=O)c2cc([C@@H]3OCC4(CC4)c4ccccc43)cs2)C[C@@H]1O` (single isomer, unassigned) [I-281a, [(1R,2S,4R)-2-hydroxy-4-{[5-({4-[(1′R)-1′H-spiro[cyclopropane-1,4′-isochromen]-1′-yl]-2-thienyl}carbonyl)pyrimidin-4-yl]amino}cyclopentyl]methyl sulfamate or [(1R,2S,4R)-2-hydroxy-4-{[5-({4-[(1′S)-1′H-spiro[cyclopropane-1,4′-isochromen]-1′-yl]-2-thienyl}carbonyl)pyrimidin-4-yl]amino}cyclopentyl]methyl sulfamate], the “Percent Inhibition” value [1] was 74% and the IC50 [2] was 10 to 100 nM.
For `NS(=O)(=O)OC[C@H]1C[C@@H](Nc2ncncc2C(=O)c2cc([C@H]3NCCc4ccccc43)c(Cl)s2)C[C@@H]1O` (single isomer, unassigned) [I-279a, [(1R,2S,4R)-4-{[5-({5-chloro-4-[(1S)-1,2,3,4-tetrahydroisoquinolin-1-yl]-2-thienyl}carbonyl)pyrimidin-4-yl]amino}-2-hydroxycyclopentyl]methyl sulfamate or [(1R,2S,4R)-4-{[5-({5-chloro-4-[(1R)-1,2,3,4-tetrahydroisoquinolin-1-yl]-2-thienyl}carbonyl)pyrimidin-4-yl]amino}-2-hydroxycyclopentyl]methyl sulfamate], the “Percent Inhibition” value (Concentration 0.111 μM) was 100 and the IC50 (class symbols A/B/C) was < 10 nM.
With `Cc1sc(C(=O)c2cncnc2N[C@@H]2C[C@H](COS(N)(=O)=O)[C@@H](O)C2)cc1[C@@H]1OCCc2ccc(C(F)(F)F)cc21` (single isomer, unassigned) [I-258a, [(1R,2S,4R)-2-hydroxy-4-{[5-({5-methyl-4-[(1R)-7-(trifluoromethyl)-3,4-dihydro-1H-isochromen-1-yl]-2-thienyl}carbonyl)pyrimidin-4-yl]amino}cyclopentyl]methyl sulfamate or [(1R,2S,4R)-2-hydroxy-4-{[5-({5-methyl-4-[(1S)-7-(trifluoromethyl)-3,4-dihydro-1H-isochromen-1-yl]-2-thienyl}carbonyl)pyrimidin-4-yl]amino}cyclopentyl]methyl sulfamate] the “Percent Inhibition” value (Concentration 0.111 μM) was 98 and the IC50 (class symbols A/B/C) was < 10 nM.
`C=C(C)[C@H](O)c1cc(C(=O)c2cncnc2N[C@@H]2C[C@H](COS(N)(=O)=O)[C@@H](O)C2)sc1Cl` (mixture of isomers) [I-141, [(1R,2S,4R)-4-{[5-({5-chloro-4-[(1S)-1-hydroxy-2-methylprop-2-en-1-yl]-2-thienyl}carbonyl)pyrimidin-4-yl]amino}-2-hydroxycyclopentyl]methyl sulfamate and [(1R,2S,4R)-4-{[5-({5-chloro-4-[(1R)-1-hydroxy-2-methylprop-2-en-1-yl]-2-thienyl}carbonyl)pyrimidin-4-yl]amino}-2-hydroxycyclopentyl]methyl sulfamate] was tested, and the “Percent Inhibition” value (Concentration 0.111 μM) was 95 and the IC50 (class symbols A/B/C) was < 10 nM.
With `N[C@@H](c1cccc(Cl)c1)c1cc(C(=O)c2cncnc2N[C@@H]2C[C@H](COS(N)(=O)=O)[C@@H](O)[C@H]2O)sc1Cl` (single isomer, unassigned) [I-14b, [(1R,2R,3S,4R)-4-{[5-({4-[(S)-Amino(3-chlorophenyl)methyl]-5-chloro-2-thienyl)carbonyl)pyrimidin-4-yl]amino}-2,3-dihydroxycyclopentyl]methyl sulfamate or [(1R,2R,3S,4R)-4-{[5-({4-[(R)-Amino(3-chlorophenyl)methyl]-5-chloro-2-thienyl}carbonyl)pyrimidin-4-yl]amino}-2,3-dihydroxycyclopentyl]methyl sulfamate] the “Percent Inhibition” value (Concentration 0.111 μM) was 95 and the IC50 (class symbols A/B/C) was < 10 nM.
With `Cc1sc(C(=O)c2cncnc2N[C@@H]2C[C@H](COS(N)(=O)=O)[C@@H](O)C2)cc1[C@@H]1OCCc2ccc(Cl)nc21` (mixture of isomers) [I-286, [(1R,2S,4R)-4-{[5-({4-[(8S)-2-chloro-5,8-dihydro-6H-pyrano[3,4-b]pyridin-8-yl]-5-methyl-2-thienyl}carbonyl)pyrimidin-4-yl]amino}-2-hydroxycyclopentyl]methyl sulfamate and [(1R,2S,4R)-4-{[5-({4-[(8R)-2-chloro-5,8-dihydro-6H-pyrano[3,4-b]pyridin-8-yl]-5-methyl-2-thienyl}carbonyl)pyrimidin-4-yl]amino}-2-hydroxycyclopentyl]methyl sulfamate] the “Percent Inhibition” value [1] was 99% and the IC50 [2] was < 10 nM.
With `Cc1sc(C(=O)c2cncnc2NC2CC(O)C(COS(N)(=O)=O)C2)cc1C1OCCc2ccccc21` (mixture of isomers) [I-256, [(1R,2S,4R)-4-{[5-({4-[(1R)-3,4-dihydro-1H-isochromen-1-yl]-5-methyl-2-thienyl}carbonyl)pyrimidin-4-yl]amino}-2-hydroxycyclopentyl]methyl sulfamate and [(1R,2S,4R)-4-{[5-({4-[(1S)-3,4-dihydro-1H-isochromen-1-yl]-5-methyl-2-thienyl}carbonyl)pyrimidin-4-yl]amino}-2-hydroxycyclopentyl]methyl sulfamate] the “Percent Inhibition” value (Concentration 0.111 μM) was 100 and the IC50 (class symbols A/B/C) was < 10 nM.
In the case of `CN1Cc2ccc(Cl)cc2[C@@H]1c1csc(C(=O)c2cncnc2N[C@@H]2C[C@H](COS(N)(=O)=O)[C@@H](O)C2)c1` (single isomer, unassigned) [I-265a, [(1R,2S,4R)-4-{[5-({4-[(1R)-6-chloro-2-methyl-2,3-dihydro-1H-isoindol-1-yl]-2-thienyl}carbonyl)pyrimidin-4-yl]amino}-2-hydroxycyclopentyl]methyl sulfamate or [(1R,2S,4R)-4-{[5-({4-[(1S)-6-chloro-2-methyl-2,3-dihydro-1H-isoindol-1-yl]-2-thienyl}carbonyl)pyrimidin-4-yl]amino}-2-hydroxycyclopentyl]methyl sulfamate], the “Percent Inhibition” value (Concentration 0.111 μM) is reported as 99 and the IC50 (class symbols A/B/C) is reported as < 10 nM.
`NS(=O)(=O)OC[C@H]1C[C@@H](Nc2ncncc2C(=O)c2cc([C@@H]3OCC(F)(F)c4ccc(Cl)cc43)cs2)C[C@@H]1O.NS(=O)(=O)OC[C@H]1C[C@@H](Nc2ncncc2C(=O)c2cc([C@H]3OCC(F)(F)c4ccc(Cl)cc43)cs2)C[C@@H]1O` (mixture of isomers) [I-289, [(1R,2S,4R)-4-{[5-({4-[(1R)-7-chloro-4,4-difluoro-3,4-dihydro-1H-isochromen-1-yl]-2-thienyl}carbonyl)pyrimidin-4-yl]amino}-2-hydroxycyclopentyl]methyl sulfamate and [(1R,2S,4R)-4-{[5-({4-[(1S)-7-chloro-4,4-difluoro-3,4-dihydro-1H-isochromen-1-yl]-2-thienyl}carbonyl)pyrimidin-4-yl]amino}-2-hydroxycyclopentyl]methyl sulfamate] was tested, and the “Percent Inhibition” value [1] was 98% and the IC50 [2] was < 10 nM.
With `NS(=O)(=O)OC[C@H]1C[C@@H](Nc2ncncc2C(=O)c2cc(Cc3cccc(Cl)c3)c([C@@H]3CCCO3)s2)C[C@@H]1O` (single isomer, unassigned) [I-41a, [(1R,2S,4R)-4-{[5-({4-(3-chlorobenzyl)-5-[(2S)-tetrahydrofuran-2-yl]-2-thienyl}carbonyl)pyrimidin-4-yl]amino}-2-hydroxycyclopentyl]methyl sulfamate or [(1R,2S,4R)-4-{[5-({4-(3-chlorobenzyl)-5-[(2R)-tetrahydrofuran-2-yl]-2-thienyl}carbonyl)pyrimidin-4-yl]amino}-2-hydroxycyclopentyl]methyl sulfamate] the “Percent Inhibition” value (Concentration 0.111 μM) was 98 and the IC50 (class symbols A/B/C) was < 10 nM.
`COc1ccccc1[C@@H](O)c1cc(C(=O)c2cncnc2N[C@@H]2C[C@H](COS(N)(=O)=O)[C@@H](O)C2)sc1Cl` (mixture of isomers) [I-85, [(1R,2S,4R)-4-{[5-({5-chloro-4-[(R)-hydroxy(2-methoxyphenyl)methyl]-2-thienyl}carbonyl)pyrimidin-4-yl]amino}-2-hydroxycyclopentyl]methyl sulfamate and [(1R,2S,4R)-4-{[5-({5-chloro-4-[(S)-hydroxy(2-methoxyphenyl)methyl]-2-thienyl}carbonyl)pyrimidin-4-yl]amino}-2-hydroxycyclopentyl]methyl sulfamate] was tested, and the “Percent Inhibition” value (Concentration 0.111 μM) was 97 and the IC50 (class symbols A/B/C) was < 10 nM.
With `NS(=O)(=O)OC[C@H]1C[C@@H](Nc2ncncc2C(=O)c2cc(CN3Cc4ccccc4C3)cs2)C[C@@H]1O` [I-187, {(1R,2S,4R)-4-[(5-{[4-(1,3-dihydro-2H-isoindol-2-ylmethyl)-2-thienyl]carbonyl}pyrimidin-4-yl)amino]-2-hydroxycyclopentyl}methyl sulfamate] the inhibition at 0.111 µM (Concentration 0.111 μM) was 76% and the IC50 (class symbols A/B/C) was 10 to 100 nM.
`NS(=O)(=O)OC[C@H]1C[C@@H](Nc2ncncc2C(=O)c2ccc(-c3ccccc3)o2)[C@H](O)[C@@H]1O` [I-134, [(1R,2R,3S,4R)-2,3-dihydroxy-4-{[5-(5-phenyl-2-furoyl)pyrimidin-4-yl]amino}cyclopentyl]methyl sulfamate] was tested, and the inhibition at 0.111 µM (Concentration 0.111 μM) was 94% and the IC50 (class symbols A/B/C) was < 10 nM.
